The record followed here is patent US8415469B2, “Compounds and methods for kinase modulation, and indications therefor” (Plexxikon Inc., priority 2005, dated 2013).

Type in all cases: biochemical
In assay [1] the target is T1, FGFR1 (Homo sapiens, UniProt P11362, C488A/C584S).
T1 construct: P1351.pET N6 BI-PTP FGFR A458-E765-X C488A, C584S; made in house; host or cells: E. coli (PTP1B co-expressed)
The experiment in a line: AlphaScreen kinase assay, FGFR1. The settings on record: read-out: IC50, activity toward kinase FGFR. (In general: Bead proximity is the source of the signal in Alpha formats.)

Assay [2] addresses T2, Flt1 (Homo sapiens, UniProt P17948).
T2 construct: P1826.pETN6 BI-PTP FLT1 M799-D1165-X WT; His6 (N); made in house; host or cells: E. coli (PTP1B co-expressed)
T2 sequence (P17948 with tags, fused parts or gaps): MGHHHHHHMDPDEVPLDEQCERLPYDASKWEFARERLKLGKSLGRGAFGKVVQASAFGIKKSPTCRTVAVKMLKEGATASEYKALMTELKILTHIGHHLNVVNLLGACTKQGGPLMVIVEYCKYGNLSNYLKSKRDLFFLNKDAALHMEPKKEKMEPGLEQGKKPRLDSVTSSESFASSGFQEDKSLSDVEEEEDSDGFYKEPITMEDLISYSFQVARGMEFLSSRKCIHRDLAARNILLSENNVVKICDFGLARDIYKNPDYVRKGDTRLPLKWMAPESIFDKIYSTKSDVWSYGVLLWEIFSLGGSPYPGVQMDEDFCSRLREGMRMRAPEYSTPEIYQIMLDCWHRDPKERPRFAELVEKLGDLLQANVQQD
In words: AlphaScreen kinase assay, Flt1. The settings on record: read-out: IC50, activity toward kinase Flt1.

Assay [3] concerns the target T3, B-Raf V600E (Homo sapiens, UniProt P15056, V600E).
T3 construct: P4254. pFastBacBD-CDC37 BRAF D437-K722-X, V600E; His6 with pFastBac HT leader (TEV site) (N); made in house; host or cells: Sf9 (baculovirus; chaperone CDC37 co-expressed)
The experiment in a line: AlphaScreen kinase assay, B-Raf V600E. Conditions: read-out: IC50, activity toward kinase B-Raf V600E.

The target in assay [4] is T4, Kit (Homo sapiens, UniProt P10721).
T4 construct: P1332.N6 BI PTP KIT M552-K948-X COD; His6 (N); made in house; host or cells: E. coli (PTP1B co-expressed)
The experiment in a line: AlphaScreen kinase assay, Kit. Conditions: read-out: IC50, activity toward kinase Kit.

Assay [5] concerns the target T5, Ret (Homo sapiens, UniProt P07949).
T5 construct: P1378.pET-SF BI-PTP RET H661-R1012 HIS; made in house
T5 sequence (P07949 with tags, fused parts or gaps): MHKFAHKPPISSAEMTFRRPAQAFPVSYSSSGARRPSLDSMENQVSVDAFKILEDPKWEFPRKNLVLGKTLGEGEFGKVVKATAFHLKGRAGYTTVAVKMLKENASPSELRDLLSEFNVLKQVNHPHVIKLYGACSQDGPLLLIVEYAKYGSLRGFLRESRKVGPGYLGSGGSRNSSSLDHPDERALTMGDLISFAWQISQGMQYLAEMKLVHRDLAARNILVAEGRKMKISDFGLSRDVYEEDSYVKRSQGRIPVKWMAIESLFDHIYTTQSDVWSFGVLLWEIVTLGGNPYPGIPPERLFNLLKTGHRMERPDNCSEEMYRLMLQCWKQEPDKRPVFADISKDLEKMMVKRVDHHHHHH
In words: AlphaScreen kinase assay, Ret. The settings on record: read-out: IC50, activity toward kinase Ret.

In assay [6] the target is T6, Fms (Homo sapiens, UniProt P07333).
T6 construct: purchased Upstate Biotechnology
The experiment in a line: AlphaScreen kinase assay, Fms. Conditions: read-out: IC50, activity toward kinase Fms.

T4 sequence (P10721 with tags, fused parts or gaps): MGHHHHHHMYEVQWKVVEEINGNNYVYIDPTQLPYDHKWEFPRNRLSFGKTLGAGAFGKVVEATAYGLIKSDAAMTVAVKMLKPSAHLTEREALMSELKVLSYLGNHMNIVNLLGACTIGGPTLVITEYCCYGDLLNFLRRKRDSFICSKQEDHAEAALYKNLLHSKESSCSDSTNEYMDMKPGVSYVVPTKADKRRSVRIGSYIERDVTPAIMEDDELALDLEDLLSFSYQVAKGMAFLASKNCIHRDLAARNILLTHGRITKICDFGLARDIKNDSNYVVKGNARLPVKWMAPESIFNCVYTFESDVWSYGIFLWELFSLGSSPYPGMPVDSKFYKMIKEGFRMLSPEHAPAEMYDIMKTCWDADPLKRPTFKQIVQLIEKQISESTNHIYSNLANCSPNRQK
T6 sequence (P07333 20-972): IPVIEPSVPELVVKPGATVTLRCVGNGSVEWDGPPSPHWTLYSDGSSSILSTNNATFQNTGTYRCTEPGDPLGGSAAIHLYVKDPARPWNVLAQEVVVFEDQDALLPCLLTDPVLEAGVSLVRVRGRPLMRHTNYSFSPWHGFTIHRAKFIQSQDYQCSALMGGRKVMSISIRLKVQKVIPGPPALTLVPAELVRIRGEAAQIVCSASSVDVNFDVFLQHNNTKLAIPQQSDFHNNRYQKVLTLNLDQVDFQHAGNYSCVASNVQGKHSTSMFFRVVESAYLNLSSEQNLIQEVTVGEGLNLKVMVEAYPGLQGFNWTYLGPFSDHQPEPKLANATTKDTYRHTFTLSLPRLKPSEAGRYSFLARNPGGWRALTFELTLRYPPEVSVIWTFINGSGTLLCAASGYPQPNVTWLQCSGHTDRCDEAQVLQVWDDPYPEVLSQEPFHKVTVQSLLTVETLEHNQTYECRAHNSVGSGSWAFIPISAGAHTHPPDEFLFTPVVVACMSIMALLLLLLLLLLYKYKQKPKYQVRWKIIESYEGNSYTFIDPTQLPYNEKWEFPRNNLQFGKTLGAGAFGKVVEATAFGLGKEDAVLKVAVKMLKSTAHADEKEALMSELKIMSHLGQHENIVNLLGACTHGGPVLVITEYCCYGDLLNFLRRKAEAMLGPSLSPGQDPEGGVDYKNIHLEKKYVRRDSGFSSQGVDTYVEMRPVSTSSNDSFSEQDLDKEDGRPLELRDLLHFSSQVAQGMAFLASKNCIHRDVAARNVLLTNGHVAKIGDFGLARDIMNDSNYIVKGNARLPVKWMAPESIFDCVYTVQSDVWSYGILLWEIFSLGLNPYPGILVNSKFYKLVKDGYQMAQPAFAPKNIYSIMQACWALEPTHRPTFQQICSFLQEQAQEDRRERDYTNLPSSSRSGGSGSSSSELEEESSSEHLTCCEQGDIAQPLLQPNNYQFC
T1 sequence (P11362 458-765 C488A/C584S): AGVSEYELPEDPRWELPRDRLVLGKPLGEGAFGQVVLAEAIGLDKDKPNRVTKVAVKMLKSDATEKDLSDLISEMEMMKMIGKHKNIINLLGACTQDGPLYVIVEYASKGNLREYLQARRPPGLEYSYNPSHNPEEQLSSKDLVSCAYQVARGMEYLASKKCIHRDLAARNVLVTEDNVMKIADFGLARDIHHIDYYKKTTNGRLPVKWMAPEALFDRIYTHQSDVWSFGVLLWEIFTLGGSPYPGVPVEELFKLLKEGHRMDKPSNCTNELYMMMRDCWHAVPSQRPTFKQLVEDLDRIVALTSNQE
T3 sequence (P15056 with tags, fused parts or gaps V600E): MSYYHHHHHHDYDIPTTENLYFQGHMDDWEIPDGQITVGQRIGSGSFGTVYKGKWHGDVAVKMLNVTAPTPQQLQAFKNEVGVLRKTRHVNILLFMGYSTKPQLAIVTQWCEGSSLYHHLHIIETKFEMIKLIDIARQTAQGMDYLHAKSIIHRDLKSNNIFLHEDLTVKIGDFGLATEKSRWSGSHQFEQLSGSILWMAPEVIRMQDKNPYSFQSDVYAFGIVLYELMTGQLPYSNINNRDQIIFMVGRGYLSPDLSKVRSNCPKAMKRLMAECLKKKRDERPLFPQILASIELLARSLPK

In general, IC50 refers to the concentration that inhibits the measured activity by half. Regarding `CN(C)c1ccc(Cc2c[nH]c3ncccc23)cc1` [Compound P-0150], the IC50 in assay [1] and in assay [2] was at most 10 µM each time.
For `COc1ccc(C(=O)c2c[nH]c3ncc(-c4cccs4)cc23)c(Cl)c1` [Compound P-0248], the IC50 in assay [3], in assay [1], in assay [4] and in assay [5] was at most 10 µM in each case.
Consider `O=C(c1ccc(NCc2ccc(C(F)(F)F)cc2)nc1)c1c[nH]c2ncccc12` [Compound P-0461], for which the IC50 in assay [2] and in assay [6] was at most 10 µM each time.
Take `Fc1ccc(-c2c[nH]c3ncccc23)c(F)c1` [Compound P-0470]: the IC50 in assay [2] was at most 10 µM.
As to `O=C(c1ccc(NCc2ccc(F)cc2)nc1)c1c[nH]c2ncccc12` [Compound P-0491], the IC50 in assay [2] and in assay [6] was at most 10 µM each time.
As for `c1ccc(C(CNCc2c[nH]c3ncccc23)c2ccccc2)cc1` [Compound P-0514], the IC50 in assay [2] was at most 10 µM.
Consider `O=S(=O)(NCc1c[nH]c2ncccc12)c1cc(Cl)sc1Cl` [Compound P-0603], for which the IC50 in assay [3] and in assay [2] was at most 10 µM throughout.
On to `c1ccc(CNc2ccc(Cc3c[nH]c4ncccc34)cn2)cc1` [Compound P-0733], for which the IC50 in assay [2] and in assay [6] was at most 10 µM throughout.
With `Cc1ccccc1S(=O)(=O)NCc1c[nH]c2ncccc12` [Compound P-0768], the concentration for half-maximal inhibition (IC50) in assay [2] was at most 10 µM.
Consider `c1cc(Cc2c[nH]c3ncc(-c4ccsc4)cc23)cc(OCCOC2CCCCO2)c1` (centres unmarked) [Compound P-0835], for which the IC50 in assay [1], in assay [6], in assay [4] and in assay [5] was at most 10 µM in each case.
As for `Cc1nc(NCc2ccc(C(F)(F)F)cc2)ccc1Cc1c[nH]c2ncccc12` [Compound P-1112], the IC50 in assay [3], in assay [2] and in assay [6] was at most 10 µM in each case.
Take `O=C(c1ccc(Nc2ccccc2)nc1)c1c[nH]c2ncccc12` [Compound P-1160]: the IC50 in assay [3], in assay [2] and in assay [4] was at most 10 µM in each case.
Turning to `CC(=O)Nc1cccc(-c2cnc3[nH]cc(C(=O)c4cccc(OC(F)(F)F)c4)c3c2)c1` [Compound P-1422, N-{3-[3-(3-Trifluoromethoxy-benzoyl)-1H -pyrrolo[2,3-b]pyridin-5-yl]-phenyl}-acetamide], the IC50 in assay [2] and in assay [4] was at most 10 µM each time.
Regarding `CC(=O)Nc1cccc(-c2cnc3[nH]cc(C(=O)c4cccc(OC(F)F)c4)c3c2)c1` [Compound P-1424, N-{3-[3-(3-Difluoromethoxy-benzoyl)-1H-pyrrolo[2,3-b]pyridin-5-yl]-phenyl}-acetamide], the IC50 in assay [1], in assay [2] and in assay [4] was at most 10 µM throughout.
In the case of `Clc1ccc(Nc2c[nH]c3ncccc23)cc1` [Compound P-1491, (4-Chloro-phenyl)-(1H-pyrrolo[2,3-b]pyridin-3-yl)-amine], the IC50 in assay [2] and in assay [6] was at most 10 µM each time.
As to `CCOc1ccccc1C(O)c1c[nH]c2ncc(-c3cccnc3)cc12` (centres unmarked) [Compound P-1533], the IC50 in assay [2] was at most 10 µM.
In the case of `O=C(c1ccc(Cl)cc1Cl)c1c[nH]c2ncc(-c3ccccc3)cc12` [Compound P-1557], the IC50 in assay [2] and in assay [4] was at most 10 µM throughout.
As for `CCCCNC(=O)Nc1ccc(F)c(Cc2c[nH]c3ncc(OC)cc23)c1F` [Compound P-1571, 1-Butyl-3-[2,4-difluoro-3-(5-methoxy-1H-pyrrolo[2,3-b]pyridin-3-ylmethyl)-phenyl]-urea], the IC50 in assay [2] and in assay [6] was at most 10 µM in each case.
Regarding `COc1cnc2[nH]cc(Cc3c(F)ccc(NC(=O)NC4CCCC4)c3F)c2c1` [Compound P-1572, 1-Cyclopentyl-3-[2,4-difluoro-3-(5-methoxy-1H-pyrrolo[2,3-b]pyridin-3-ylmethyl)-phenyl]-urea], the IC50 in assay [3], in assay [2] and in assay [6] was at most 10 µM each time.
As to `CCCCNC(=O)Nc1ccc(F)c(Cc2c[nH]c3ncc(Cl)cc23)c1F` [Compound P-1587, 1-Butyl-3-[3-(5-chloro-1H-pyrrolo[2,3-b]pyridin-3-ylmethyl)-2,4-difluoro-phenyl]-urea], the IC50 in assay [2] and in assay [6] was at most 10 µM each time.
As to `O=C(NCCN1CCOCC1)Nc1ccc(F)c(Cc2c[nH]c3ncc(Cl)cc23)c1F` [Compound P-1594, 1-[3-(5-Chloro-1H-pyrrolo[2,3-b]pyridin-3-ylmethyl)-2,4-difluoro-phenyl]-3-(2-morpholin-4-yl-ethyl)-urea], the IC50 in assay [3], in assay [2] and in assay [6] was at most 10 µM throughout.
For the compound `O=C(Nc1ccc(F)c(Cc2c[nH]c3ncc(Cl)cc23)c1F)N1CCOCC1` [Compound P-1595, Morpholine-4-carboxylic acid [3-(5-chloro-1H-pyrrolo[2,3-b]pyridin-3-ylmethyl)-2,4-difluoro-phenyl]-amide], the IC50 in assay [1], in assay [2] and in assay [6] was at most 10 µM each time.
In the case of `O=C(NCC(F)(F)F)Nc1ccc(F)c(Cc2c[nH]c3ncc(Cl)cc23)c1F` [Compound P-1601, 1-[3-(5-Chloro-1H-pyrrolo[2,3-b]pyridin-3-ylmethyl)-2,4-difluoro-phenyl]-3-(2,2,2-trifluoro-ethyl)-urea], the IC50 in assay [3] and in assay [2] was at most 10 µM in each case.
Regarding `CS(=O)(=O)Nc1ccc(F)c(Cc2c[nH]c3ncccc23)c1F` [Compound P-1603, N-[2,4-Difluoro-3-(1H-pyrrolo[2,3-b]pyridin-3-ylmethyl)-phenyl]-methanesulfonamide], the IC50 in assay [1] and in assay [2] was at most 10 µM in each case.
As to `O=C(c1c(F)ccc(NC(=O)N2CCOCC2)c1F)c1c[nH]c2ncc(Cl)cc12` [Compound P-1606, Morpholine-4-carboxylic acid [3-(5-chloro-1H-pyrrolo[2,3-b]pyridine-3-carbonyl)-2,4-difluoro-phenyl]-amide], the IC50 in assay [3], in assay [2] and in assay [6] was at most 10 µM throughout.
On to `CS(=O)(=O)c1cccc(-c2cnc3[nH]cc(Cc4c(F)ccc(N)c4F)c3c2)c1` [Compound P-1614], for which the IC50 in assay [3], in assay [1] and in assay [2] was at most 10 µM each time.
With `CS(=O)(=O)c1cccc(-c2cnc3[nH]cc(Cc4c(F)ccc(NC(=O)NC5CCCC5)c4F)c3c2)c1` [Compound P-1615, 1-Cyclopentyl-3-{2,4-difluoro-3-[5-(3-methanesulfonyl-phenyl)-1H-pyrrolo[2,3-b]pyridin-3-ylmethyl]-phenyl}-urea], the IC50 in assay [2] and in assay [6] was at most 10 µM each time.
Turning to `COC(=O)Nc1cccc(C(=O)c2c[nH]c3ncc(Cl)cc23)c1` [Compound P-1619], in assay [2], the IC50 is at most 10 µM.
`NC(=O)c1cccc(-c2cnc3[nH]ccc3c2)c1` [Compound P-1622, 3-(1H-Pyrrolo[2,3-b]pyridin-5-yl)-benzamide]: the IC50 in assay [1] and in assay [2] was at most 10 µM throughout.
Consider `O=C(c1c[nH]c2ccccc12)c1c[nH]c2ncc(Br)cc12` [Compound P-1624], for which the IC50 in assay [1] and in assay [2] was at most 10 µM in each case.
Regarding `CCCCN(C)C(=O)Nc1ccc(F)c(Cc2c[nH]c3ncc(Cl)cc23)c1F` [Compound P-1625, 1-Butyl-3-[3-(5-chloro-1H-pyrrolo[2,3-b]pyridin-3-ylmethyl)-2,4-difluoro-phenyl]-1-methyl-urea], the IC50 in assay [1], in assay [2] and in assay [6] was at most 10 µM throughout.
`CCCn1cccc1C(c1c[nH]c2ncc(-c3cccnc3)cc12)n1ccc2cc(-c3cccnc3)cnc21` (centres unmarked) [Compound P-1686]: the half-maximal inhibitory concentration (IC50) in assay [2] was at most 10 µM.
